Values of other authors, collected in patent US20220071932A1, “Compositions and Methods Against Stress-Induced Affective Disorders and Their Associated Symptoms” (The Trustees of Columbia University in the City of New York, priority 2019, published 2022).

Tested on: depressive symptoms in patients
Conditions: patients diagnosed with MDD; cited from earlier work

## CC12CC3CC(C)(C1)CC(N)(C3)C2 [memantine]
  reduction of depressive symptoms: does not reduce depressive symptoms
